Legend:
[1] = target: T1, human muscarinic M3 receptor (Homo sapiens, UniProt P20309); assay: [3H]-methylscopolamine binding to recombinant human M3 receptors; details: BSR-M3H cell membranes, 60 minutes at 25° C.
T1 construct: expressed in transfected cells; host or cells: BSR-M3H cells (membrane preparation)
Procedure: WO 94/11337 discloses that the active metabolite has high affinity to muscarinic receptors in the guinea-pig bladder. Different compounds of the present invention were tested in a well established standardized assay, measuring the binding of [^3H]-methylscopolamine to recombinant human M3 receptors. BSR-M3H cells transfected with a plasmid encoding the human muscarinic M3 receptor were used to prepare membranes in modified Tris-HCl pH 7.4 buffer using standard techniques. An aliquot of the membrane preparation was incubated with [^3H]-methylscopolamine in the presence or absence of different concentrations of several compounds of the invention for 60 minutes at 25° C. Nonspecific binding was estimated in the presence of 1 μM atropine. Membranes were filtered and washed three times and the filters were counted to determine the amount of [^3H]-methylscopolamine specifically bound.

[2] = Penetration through human skin, flow through cell; format: in vitro ADME; details: human skin 200 μm thick, 32° C., acceptor phosphate buffer pH 6.2
Procedure: Different compounds of the invention were tested for their ability to penetrate the human skin (200 μm thick) in the “Flow through cell” at 32° C. according to Tiemessen et al. (Acta Pharm. Technol. 1998; 34:99-101). Phosphate buffer (pH 6.2) was used as the acceptor medium. Samples were drawn at different time points and analysed by RP-HPLC with UV detection (220 nm). Permeation profiles were plotted and mean flux rates of different substances were calculated by linear regression analysis.

[3] = Incubation of labelled substrates: metabolic degradation to the carboxylic acid; format: in vitro ADME, human; details: 3 hrs at 37.0° C., 40 μM; compared with unlabelled hydroxy metabolite
Procedure: The metabolic degradation of the unlabelled hydroxy metabolite (i.e. Intermediate D) and the deuteriated hydroxy-metabolite (Intermediate d2B) were compared in vitro. Used were the respective enantiomers and the racemates.
The hydroxy metabolite and the deuteriated hydroxy-metabolite expressed significant differences in the rate to produce the corresponding carboxylic acid.
The measurement was performed with an incubation time of 3 hrs at 37.0° C. in a concentration of 40 μM.

[4] = tested on: guinea-pig ileum; assay: Anticholinergic activity in guinea-pig ileum (methacholine-induced contractile response); format: cell-based; details: Cavia porcellus; methacholine 0.6 μM, Krebs solution pH 7.4, 32° C.
Procedure: The compounds were tested for their anticholinergic activity in a standard tissue assay, the guinea-pig ileum. A segment of ileum was obtained from Duncan Hartley guinea-pigs which were scarified by cervical dislocation. The tissue was placed under 1 g tension in a 10 ml bath containing Krebs, solution (pH 7.4, 32° C.) and the concentration-dependent ability of different compounds to reduce the methacholine-induced (0.6 μM) contractile response was recorded.

[5] = tested on: urinary bladder over the effect on the salivation; details: preclinical, Nilvebrant et al. 1997; cited from earlier work

T1 sequence (P20309 whole entry): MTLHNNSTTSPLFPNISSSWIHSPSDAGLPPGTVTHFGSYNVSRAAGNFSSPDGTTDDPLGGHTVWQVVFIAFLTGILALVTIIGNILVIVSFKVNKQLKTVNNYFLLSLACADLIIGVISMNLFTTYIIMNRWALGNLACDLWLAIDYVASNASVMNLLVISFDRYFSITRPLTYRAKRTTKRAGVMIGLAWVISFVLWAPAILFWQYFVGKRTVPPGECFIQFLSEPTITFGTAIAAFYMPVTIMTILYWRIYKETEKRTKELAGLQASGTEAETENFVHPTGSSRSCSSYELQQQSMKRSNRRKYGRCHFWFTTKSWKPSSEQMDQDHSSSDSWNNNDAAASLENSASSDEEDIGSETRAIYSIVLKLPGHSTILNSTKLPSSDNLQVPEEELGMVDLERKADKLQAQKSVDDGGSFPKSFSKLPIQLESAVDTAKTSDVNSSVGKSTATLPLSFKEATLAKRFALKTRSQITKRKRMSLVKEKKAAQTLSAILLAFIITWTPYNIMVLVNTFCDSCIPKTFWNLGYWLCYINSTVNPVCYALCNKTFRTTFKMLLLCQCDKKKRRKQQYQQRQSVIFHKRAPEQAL

Row | IC50 [1] [nM] | IC50 [4] [nM] | SMILES | other results
1 | 2400 | – | CC(C)N(CCC(c1ccccc1)c1cc(COC(=O)c2ccccc2)ccc1OC(=O)c1ccccc1)C(C)C (racemic) [BzO-/-OBz, (±)-Benzoic acid 4-benzoyloxymethyl-2-(3-diisopropylamino-1-phenylpropyl)-phenyl ester] | –
2 | – | – | CC(C)N(CCC(c1ccccc1)c1cc(CO)ccc1O)C(C)C (racemic) [HO-/-OH, (±)-2-(3-Diisopropylamino-1-phenylpropyl)-4-hydroxymethylphenol, reference compound] | Flux rate [2]: 3 μg/cm^2/24 hrs
3 | – | – | CC(C)C(=O)Oc1ccc(CO)cc1C(CCN(C(C)C)C(C)C)c1ccccc1 (racemic) [HO-/-OiBut, (±)-Isobutyric acid 2-(3-diisopropylamino-1-phenylpropyl)-4-hydroxymethylphenyl ester] | Flux rate [2]: 150 μg/cm^2/24 hrs
4 | – | – | CCC(=O)OCc1ccc(OC(=O)CC)c(C(CCN(C(C)C)C(C)C)c2ccccc2)c1 (racemic) [PropO-/-OProp, (±)-Propionic acid 2-(3-diisopropylamino-1-phenylpropyl)-4-propionyloxymethylphenyl ester] | Flux rate [2]: 70 μg/cm^2/24 hrs
5 | – | – | [2H]C([2H])(O)c1ccc(O)c(C(CCN(C(C)C)C(C)C)c2ccccc2)c1 (racemic) [deuteriated hydroxy-metabolite, (±)-2-(3-Diisopropylamino-1-phenylpropyl)-4-hydroxy-[^2H2]methyl-phenol] | decreased velocity of formation of the carboxylic acid [3]: 10%
6 | – | – | CC(C)C(=O)OCc1ccc(OC(=O)C(C)C)c(C(CCN(C(C)C)C(C)C)c2ccccc2)c1 (racemic) [iButO-/-OiBut, (±)-Isobutyric acid 2-(3-diisopropylamino-1-phenylpropyl)-4-isobutyryloxymethylphenyl ester] | Flux rate [2]: 60 μg/cm^2/24 hrs
7 | – | 220 | CC(C)N(CC[C@H](c1ccccc1)c1cc(COC(=O)c2ccccc2)ccc1OC(=O)c1ccccc1)C(C)C [(+)BzO-/-OBz, R-(+)-benzoic acid 4-benzoyloxymethyl-2-(3-diisopropylamino-1-phenylpropyl)-phenyl ester] | –
8 | 172 | 180 | CC(C)N(CC[C@H](c1ccccc1)c1cc(CO)ccc1OC(=O)c1ccccc1)C(C)C [(+)HO-/-OBz, R-(+)-Benzoic acid 2-(3-diisopropylamino-1-phenylpropyl)-4-hydroxymethylphenyl ester] | –
9 | 8.7 | 20 | CC(C)N(CC[C@H](c1ccccc1)c1cc(CO)ccc1O)C(C)C [(+)HO-/-OH, R-(+)-2-(3-Diisopropylamino-1-phenylpropyl)-4-hydroxymethyl-phenol, reference compound] | –
10 | 159 | 57 | CC(C)C(=O)Oc1ccc(CO)cc1[C@H](CCN(C(C)C)C(C)C)c1ccccc1 [(+)HO-/-OiBut, R-(+)-Isobutyric acid 2-(3-diisopropylamino-1-phenylpropyl)-4-hydroxymethylphenyl ester] | –
11 | 1300 | 680 | CC(C)N(CC[C@@H](c1ccccc1)c1cc(CO)ccc1O)C(C)C [(−)HO-/-OH, S-(−)-2-(3-Diisopropylamino-1-phenylpropyl)-4-hydroxymethyl-phenol, reference compound] | –
12 | – | – | CCN(CC)CC#CCOC(=O)C(O)(c1ccccc1)C1CCCCC1 (centres unmarked) [oxybutynin] | tissue selectivity in vivo for the urinary bladder over the effect on the salivation [5]: reversed selectivity
13 | – | – | Cc1ccc(O)c([C@H](CCN(C(C)C)C(C)C)c2ccccc2)c1 [tolterodine, Tolterodine] | tissue selectivity in vivo for the urinary bladder over the effect on the salivation [5]: favourable tissue selectivity

Row | SMILES | IC50 [1] [nM] | IC50 [4] [nM] | other results
14 | CC(=O)OCc1ccc(OC(=O)c2ccccc2)c(C(CCN(C(C)C)C(C)C)c2ccccc2)c1 (racemic) [AcO-/-OBz, (±)-Benzoic acid 2-(3-diisopropylamino-1-phenylpropyl)-4-acetoxymethylphenyl ester] | 5400 | – | –
15 | CC(=O)OCc1ccc(OC(=O)C(C)C)c(C(CCN(C(C)C)C(C)C)c2ccccc2)c1 (racemic) [AcO-/-OiBut, (±)-Isobutyric acid 4-acetoxymethyl-2-(3-diisopropylamino-1-phenylpropyl)-phenyl ester] | 3600 | – | –
16 | CC(=O)OCc1ccc(OC(=O)C(C)C)c([C@H](CCN(C(C)C)C(C)C)c2ccccc2)c1 [(+)AcO-/-OiBut, R-(+)-isobutyric acid 4-acetoxymethyl-2-(3-diisopropylamino-1-phenylpropyl)-phenyl ester] | – | 240 | –
